Measurements reported in patent publication EP4458804A1, “METHOD FOR PRODUCING AN OBJECT, PHENALEN-1-ONE COMPOUND AND USE THEREOF” (TriOptoTec GmbH, priority 2023, dated 2024).

Experiments:
[1] = Incorporation of photocatalysts into TPU films versus process time, absorption spectroscopy against blank film (Beispiele 7a-9b); type: physicochemical; conditions: Rezeptur 1
Description: Im nächsten Schritt wurde die Verwendbarkeit der verschiedene Photokatalysatorklassen, ausgewählt aus Phenalen-1-on-Derivaten, Curcumin-Derivaten und Porphycen-Derivaten, mit unterschiedlichen Eigenschaften - von neutral unpolar bis ionisch polar - auf Ihre Verwendbarkeit und Wirkung im Verfahren untersucht.
Zur Beurteilung der optimalen Prozesszeit bei Einsatz der Photokatalysatoren, wurden TPU Folienstücke nach Beschreibung in Beispiel 4 zu je 1, 2, 5 und 10 min in den Imprägnierlösungen behandelt, gegebenenfalls auch 30 und 60 min bei undeutlichen Ergebnissen.
Als Basisformulierung wurde Rezeptur 1 nach Beispiel 2 verwendet.
Nach der angegebenen Prozesszeit wurden die Folie entnommen, mit Wasser gewaschen und für 1h bei 40°C getrocknet/abgelüftet.
Die Folien wurden durch Absorptionsspektroskopie gegen ein Blank-Folienstück direkt vermessen, beim Maximum der Absorption des Photokatalysators. Dabei ergaben sich in Abhängigkeit der Prozesszeit folgende Werte, die in den Tabellen 40 bis

S.aureus ATCC 6538 [2] = assay: Antibacterial activity of impregnated films, modified ISO 22196 with illumination (Beispiele 11-16, 25); type: cell-based
From the text: Die Bestimmung der antimikrobiellen Aktivität erfolgte nach einer modifizierten Version der ISO 22196:2011-08 ("Messung von antibakterieller Aktivität auf Kunststoff- und anderen porenfreien Oberflächen", Ausgabedatum: 2011-08).
Bei der Testdurchführung wurde ein dünner Flüssigkeitsfilm, in dem die Bakterien enthalten sind (1,25 x 10^4 /cm^2), direkt auf die Probenkörper (3 x 3 cm) aufgebracht. Direkt nach Beimpfung wurden von der Nullprobe die Bakterien von den Probenkörperoberflächen mittels Ultraschall und Vortexen abgelöst und die Keimzahl (KBE (engl. CFU), Kolonie-bildende Einheit) bestimmt (t0-Wert).
Nach 4h wurden überlebende Bakterien von den Probenkörperoberflächen mittels Ultraschall und Vortexen abgelöst und die Keimzahl bestimmt (t4-Wert).
Im Unterschied zu der in der ISO 22196:2011-08 beschreibenen Methode wurde das Inokulum nicht mit einer Folie abgedeckt und die Inkubationszeit wurde von 24 auf 4 Stunden reduziert. Weiterhin wurden die Probenkörper der Proben 3 und 4 mit Licht der Intensität 20mW/cm2 für 10min belichtet, um eine biozide Wirkung nach Bestrahlung mit elektromagnetischer Strahlung zu bestimmen.
Verwendet wurden TPU Folienstücke, die nach dem in Beispiel 4 beschriebenen Verfahren mit Rezeptur 1 behandelt wurden. Rezeptur 1 wurde hergestellt nach Beispiel 2. […] Der Test wurde in Anlehnung an ISO 22196 nach oben beschriebener Methode durchgeführt.
TPU-Folienstücke wurden ebenfalls nach dem in Beispiel 4 beschriebenen Verfahren mit verschiedenen Rezepturen behandelt, die gemäß Beispiel 2 hergestellt wurden. Die Farbstoffkonzentration in der Imprägnierlösung betrug jeweils 1 mM F-24b. Der Test wurde in Anlehnung an ISO 22196 nach oben beschriebener Methode durchgeführt.
Die Farbstoffkonzentration in der Imprägnierlösung betrug jeweils 1 mM.
Die Photokatalysator-Konzentration von F-24b wurde variiert.
Es wurde ein Bakterientest in Anlehnung an ISO 22196 nach oben beschriebener Methode durchgeführt.

[3] = Leaching test A: screening immersion 24 h, UV-VIS of supernatant (Beispiel 10 A); type: physicochemical; parameters: Abs. nach Auswaschen: unit not given here; conditions: medium Wasser; for Berechneter Verlust in %: Rezeptur 1 nach Beispiel 1; for Abs. nach Auswaschen: Rezeptur 1 nach Beispiel 1, supernatant
Description: Um das Auswaschen der verschiedenen Farbstoffe in den Kunststofffolien zu beurteilen, wurde ein Immersionstest in deionisiertem Wasser mit einem pH-Wert von (6 ± 1) (oder gegebenenfalls anderen Lösungsmitteln) und einer Wassertemperatur von (22 ± 3) °C für 24 Stunden durchgeführt.
Dazu wurde ein Folienstück definierter Größe (3 cm x 3 cm) imprägniert (nach Rezeptur 1, Beispiel 1) und anschließend für 24 Stunden in eine definierte Menge deionisiertem Wasser (12,0 mL) gegeben und durch eine Schüttelplatte in Bewegung gehalten. Nach der angegeben Immersionszeit wurde die Folie entnommen und der Überschuss im UV-VIS Spektrometer vermessen, um die ausgewaschene Menge an Farbstoff zu bestimmen. Die Menge wird durch die definierte Größe der Folie und definierte Flüssigkeitsmenge auf einen Quadratzentimeter zurückgerechnet.
Dieser Immersionstest diente dazu, das Auswaschverhalten verschiedener Farbstoffe aus verschiedenen Kunststofffolien zu beurteilen. Weiter sollte er dabei helfen, verschiedene Farbstoffklassen oder verschiedene Farbstoffderivate einer Farbstoffklasse bezüglich dieser Charakteristik miteinander zu vergleichen.
Die zugeschnittenen Folien werden in einem geeigneten Behälter vollständig mit dem Prüfmedium (typischerweise deionisiertes Wasser) bedeckt. Anschließend wird der Behälter zugedeckt und auf die Schüttelplatte aufgebracht. Bei geringer Geschwindigkeit der Platte wird für 24 Stunden gewartet. Nach der Immersion wurden 3 mL des Überstandes durch Absorptionsspektroskopie vermessen.
Die Auswertung erfolgte über das Verhältnis der max. Absorptionswerte einer reinen Farbstofflösung definierter Konzentration und des vermessenen Überstandes. Die Ergebnisse sind in Tabelle 50 dargestellt. Tabelle 50: Auswaschverhalten verschiedener Photokatalysatoren nach Immersionstest A

S.aureus ATCC 6538 [4] = assay: Antibacterial activity of impregnated films, modified ISO 22196 with illumination (Beispiele 11-16, 25); type: cell-based; conditions: Beispiel 14; TPU film; Rezeptur 1 (nach Beispiel 1); 1 mM photocatalyst in impregnation solution; light 20mW/cm2 10min
[5] = Comparative examples 23-25: impregnation of unsuitable plastics or with a fluorescent dye, visual evaluation; type: physicochemical
Description: Die Farbstoffkonzentration in der Imprägnierlösung betrug jeweils 1 mM bei Phenalen-1-on- und Curcuminderivaten, 0,1 mM bei Prophycenderivaten.
Es wurden 0,2 mm starke Polycarbonatfolien eingesetzt und mit Imprägnierlösungen enthaltend die Photokatalysatoren F-24b, F-64a oder F-73 behandelt.
Es wurden TPU Folien eingesetzt und mit einer Imprägnierlösung enthaltend den Farbstoff 2-Chloro-6-(3-hydroxypropylamino)-1-phenalenon (CAS 113722-81-9) behandelt.

[6] = Two-component system (kit of parts): impregnation of TPU films, visual colouring and resistance to rubbing/washing (Beispiel 6a/6b); type: physicochemical; conditions: TPU Folien; for Abreiben / Auswaschen der Färbung: feuchter Schwamm, Wasser
From the text: Um eine Mehrkomponenten-System bereitzustellen, bei dem vorzugsweise flüchtigere Hilfskomponenten, die gegebenenfalls regelmäßiger im Prozess ergänzt werden müssen, in einer separaten Komponente bereitgestellt werden können, wurde zunächst folgendes 2K-System getestet.
Grundkomponente (A): Eine Mischung aus 40,0% w/w Aceton, 30,0% w/w Isopropanol und […] w/w Wasser wurden homogen vermengt. Die Mischung war dicht verschlossen > 12 Monate bei Raumtemperatur lagerbar.
Zusatzkomponente (B): Eine Mischung aus 3,0% w/w Phenoxyethanol, 3,0% w/w EDTA und 0,1 bis 2,0 % Photokatalysator in Wasser wurden homogen verrührt. Die Mischung war dicht verschlossen in dunklen Flaschen > 6 Monate bei Raumtemperatur lagerbar.
Beide Lösungen wurden vor dem Prozess zu gleichen Teilen gemischt, gefolgt von einer 1:5 Verdünnung mit Wasser. Nach guter Durchmischung war die Lösung gebrauchsfertig.
Bei F-64a und F-73 war eine schwache Gelb- bzw.
Grundkomponente (A) enthielt eine Mischung aus 30,0% w/w Dimethylsuccinat, 33,0% w/w 1,2-Propandiol, 12,0% w/w Tween 20 und 25,0 % Wasser.
Zusatzkomponente (B) enthielt eine Mischung aus 2,0 Gew.-% Phenoxyethanol, 2,0 Gew.-% EDTA und 0,1 Gew.-% bis 1,6 Gew.-% Photokatalysator, jeweils bezogen auf das Gesamtgewicht der Zusatzkomponente (B), wobei die entsprechenden Bestandteile in Wasser gelöst wurden und anschließend homogen verrührt wurden.
Die Komponenten wurden vor Gebrauch im Verhältnis A zu B 2:1 gemischt, gefolgt von einer 1:1 Verdünnung mit Wasser. Nach guter Durchmischung war die Lösung gebrauchsfertig.

[7] = Beispiel 9a neutral Porphycenderivate mit Hydroxyfunktion, TPU film, process time 10 min
[8] = Beispiel 7a neutral Phenalen-1-one, TPU film, process time 1 min, absorption at photocatalyst maximum vs blank film
[9] = Beispiel 7a neutral Phenalen-1-one, TPU film, process time 2 min
[10] = Beispiel 7a neutral Phenalen-1-one, TPU film, process time 5 min
[11] = Beispiel 7a neutral Phenalen-1-one, TPU film, process time 10 min
[12] = TPU Folie, Beispiel 7d, Tabelle 43
[13] = TPU Folie, Beispiel 8a, Tabelle 44

## COCCC1=Cc2nc1ccc1[nH]c(cc1CCOC)c1nc(c(OCCC(NC(=O)OC(C)(C)C)C(=O)O)cc3[nH]c2cc3CCOC)C(CCOC)=C1 (stereo not shown) [F-78b]
[1]; [7]
  Abs. 10 min: 0,670

## NCCCOC1=CC(=O)c2cccc3cccc1c23 [F-08]
[1]; [8]
  Abs. 1 min: 0,003
[1]; [9]
  Abs. 2 min: 0,015
[1]; [10]
  Abs. 5 min: 0,016
[1]; [11]
  Abs. 10 min: 0,023
S.aureus ATCC 6538 [2]; Beispiel 14, TPU film, Rezeptur 1 (nach Beispiel 1), 1 mM photocatalyst in impregnation solution, light 20mW/cm2 10min
  Log10 Reduktion Hauptprobe: 4,0 ± 0,3 log10

## CCOC1=CC(=O)c2cccc3cccc1c23 [F-02]
[1]; [12]
  Abs. 1 min: 0,125
  Abs. 2 min: 0,229
  Abs. 5 min: 0,475
  Abs. 10 min: 0,590
[3]; plastic Surlyn
  Berechneter Verlust in %: 2,7%
  Abs. nach Auswaschen: 0,009

## CC(Oc1ccc(OCC2=Cc3cccc4cccc(c34)C2=O)cc1)C(=O)O (stereo not shown) [F-20a]
[1]; [8]
  Abs. 1 min: 0,020
[1]; [9]
  Abs. 2 min: 0,014
[1]; [10]
  Abs. 5 min: 0,020
[1]; [11]
  Abs. 10 min: 0,035

## COc1cc(/C=C/C(=O)CC(=O)/C=C/c2cc(Br)c(OCCN)c(OC)c2)cc(Br)c1OCCN [F-65]
[1]; [13]
  Abs. 1 min: 0,08
  Abs. 10 min: 0,87
S.aureus ATCC 6538 [4]
  Log10 Reduktion Hauptprobe: 1,3 ± 0,1 log10

## COCCC1=Cc2nc1ccc1[nH]c(cc1CCOC)c1nc(c(OC)cc3[nH]c2cc3CCOC)C(CCOC)=C1 [F-68]
[1]; [7]
  Abs. 10 min: 1,01
[1]; Beispiel 9a neutral Porphycenderivate mit Hydroxyfunktion, TPU film, process time 30 min
  Abs. 30 min: >1
[1]; Beispiel 9a neutral Porphycenderivate mit Hydroxyfunktion, TPU film, process time 60 min
  Abs. 60 min: >1

## O=C1C(COc2ccc(O)cc2)=Cc2cccc3cccc1c23 [F-12]
[1]; [8]
  Abs. 1 min: 0,108
[1]; [9]
  Abs. 2 min: 0,349
[1]; [10]
  Abs. 5 min: 0,411
[1]; [11]
  Abs. 10 min: >1

## O=C1C(Cl)=Cc2ccc(NCCCO)c3cccc1c23 [2-Chloro-6-(3-hydroxypropylamino)-1-phenalenon, reference compound]
S.aureus ATCC 6538 [2]; TPU Folien dyed with the fluorescent dye (Beispiel 25)
  photodynamische Inaktivierung von S.aureus gegenüber den Kontrollen: keine photodynamische Inaktivierung
[5]; TPU Folien, 30 min Einwirkzeit
  Färbung der Folie: homogen pink gefärbte Folien
[5]; TPU Folien, Abreiben mit feuchtem Tuch, Waschen mit Wasser
  Entfernbarkeit der Färbung: weder durch Abreiben mit einem feuchten Tuch noch durch Waschen mit Wasser entfernt

## NCCOc1ccc2c3c(cccc13)C=CC2=O [F-09]
[1]; [8]
  Abs. 1 min: 0,227
[1]; [9]
  Abs. 2 min: 0,158
[1]; [10]
  Abs. 5 min: 0,123
[1]; [11]
  Abs. 10 min: 0,263

## NCCOc1ccc(/C=C/C(=O)CC(=O)/C=C/c2ccc(OCCN)cc2)cc1 [F-64a]
[6]; 2K-System Beispiel 6a (Aceton/Isopropanol)
  Imprägnierung / Färbung der Folie: schwache Gelb- bzw. Blaufärbung der Folie
[6]; 2K-System Beispiel 6a
  Abreiben / Auswaschen der Färbung: weder mit einem feuchten Schwamm abreiben noch mit Wasser auswaschen ließ
[6]; 2K-System Beispiel 6b (Dimethylsuccinat/1,2-Propandiol/Tween 20)
  Imprägnierung / Färbung der Folie: schwache Gelb- bzw. Blaufärbung der Folie
[6]; 2K-System Beispiel 6b
  Abreiben / Auswaschen der Färbung: weder mit einem feuchten Schwamm abreiben noch mit Wasser auswaschen ließ
[1]; [13]
  Abs. 10 min: 0,55
[5]; 0,2 mm starke Polycarbonatfolien, 60 min Einwirkzeit
  Verfärbung: keine Verfärbung
S.aureus ATCC 6538 [4]
  Log10 Reduktion Hauptprobe: 2,6 ± 1,7 log10

## COC(=O)C(C)Oc1ccc(OCC2=Cc3cccc4cccc(c34)C2=O)cc1 (stereo not shown) [F-19a]
[1]; [8]
  Abs. 1 min: >1
[1]; [9]
  Abs. 2 min: >1
[1]; [10]
  Abs. 5 min: >1
[1]; [11]
  Abs. 10 min: >1

## O=C1C(S(=O)(=O)O)=Cc2cccc3cccc1c23 [F-01a]
S.aureus ATCC 6538 [4]
  Log10 Reduktion Hauptprobe: 1,4 ± 0,4 log10

## 9-Acetoxy-2,7,12,17-tetra-(beta-methoxyethyl)porphycen [F-66]
[1]; Beispiel 9a, TPU film, process time 1 min, used as 0,1 mM Lösung
  Abs. 1 min: 0,008
[1]; Beispiel 9a, TPU film, process time 2 min, used as 0,1 mM Lösung
  Abs. 2 min: 0,020
[1]; Beispiel 9a, TPU film, process time 5 min, used as 0,1 mM Lösung
  Abs. 5 min: 0,044
[1]; Beispiel 9a, TPU film, process time 10 min, used as 0,1 mM Lösung
  Abs. 10 min: 0,058
[3]; plastic TPU
  Berechneter Verlust in %: 2,0%
  Abs. nach Auswaschen: 0,021

## NCCOc1ccc(/C=C/C(=O)C(C(=O)/C=C/c2ccc(OCCN)cc2)c2ccccc2)cc1 [F-64c]
[1]; [13]
  Abs. 5 min: 0,61
  Abs. 10 min: >1

## O=C1C=Cc2cc(S(=O)(=O)O)cc3cccc1c23 [F-01b]
[1]; [12]
  Abs. 10 min: 0,008
  Abs. 30 min: 0,011
  Abs. 60 min: 0,065

## COCCC1=Cc2nc1ccc1[nH]c(cc1CCOC)c1nc(c(OCCCN)cc3[nH]c2cc3CCOC)C(CCOC)=C1 [F-71]
[1]; Beispiel 9a neutral Porphycenderivate mit Hydroxyfunktion, TPU film, process time 1 min
  Abs. 1 min: 0
[1]; Beispiel 9a neutral Porphycenderivate mit Hydroxyfunktion, TPU film, process time 2 min
  Abs. 2 min: 0
[1]; Beispiel 9a neutral Porphycenderivate mit Hydroxyfunktion, TPU film, process time 5 min
  Abs. 5 min: 0,032
[1]; [7]
  Abs. 10 min: 0,04
[1]; Beispiel 9b cationic Porphycenderivate, TPU film, process time 10 min
  Abs. 10 min: 0,023
[1]; Beispiel 9b cationic Porphycenderivate, TPU film, process time 30 min
  Abs. 30 min: 0,062
[1]; Beispiel 9b cationic Porphycenderivate, TPU film, process time 60 min
  Abs. 60 min: 0,114

## NCCCOc1ccc2cccc3c2c1C(=O)C=C3 [F-10]
[1]; [8]
  Abs. 1 min: 0,044
[1]; [9]
  Abs. 2 min: 0,011
[1]; [10]
  Abs. 5 min: 0,062
[1]; [11]
  Abs. 10 min: 0,087
